Data reported in ChEMBL document CHEMBL1142389, “New insights into the first oxidative phenol coupling reaction during vancomycin biosynthesis” (Bioorg Med Chem Lett, 2008).

Biological target: T1, Cytochrome P450 165B3 (Amycolatopsis orientalis, UniProt Q8RN04)
T1 sequence (Q8RN04 whole entry): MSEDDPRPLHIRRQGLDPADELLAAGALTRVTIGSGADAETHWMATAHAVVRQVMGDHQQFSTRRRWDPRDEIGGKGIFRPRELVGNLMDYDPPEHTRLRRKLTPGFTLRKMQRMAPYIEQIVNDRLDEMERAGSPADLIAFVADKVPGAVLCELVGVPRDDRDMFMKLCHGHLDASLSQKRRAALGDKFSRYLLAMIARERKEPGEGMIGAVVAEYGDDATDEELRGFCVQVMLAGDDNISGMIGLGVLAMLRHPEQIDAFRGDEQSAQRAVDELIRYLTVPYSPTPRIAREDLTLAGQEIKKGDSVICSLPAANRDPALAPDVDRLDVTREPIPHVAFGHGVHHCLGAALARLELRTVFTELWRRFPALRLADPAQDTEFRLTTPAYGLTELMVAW
Assay: Binding affinity to Amycolatopsis orientalis OxyB

Kd [µM] | SMILES
35 | CN[C@H](CC(C)C)C(=O)N[C@H](Cc1ccc(O)cc1)C(=O)N[C@@H](CC(N)=O)C(=O)N[C@@H](C(=O)N[C@@H](C(=O)N[C@H](Cc1ccc(O)cc1)C(=O)O)c1ccc(O)cc1)c1ccc(O)cc1
17 | CN[C@H](CC(C)C)C(=O)N[C@H](Cc1ccc(O)cc1)C(=O)N[C@@H](CC(N)=O)C(=O)N[C@@H](C(=O)N[C@@H](C(=O)N[C@@H](Cc1ccc(O)cc1)C(=O)O)c1ccc(O)cc1)c1ccc(O)cc1
